Data published in patent US10214738B2, “Production of high purity chondroitinase ABC” (priority 2017, dated 2019).
“Also recorded” adds a separate entry of the source.

Assays:
[1] = target: T1, chondroitinase ABC (ChABC) (Proteus vulgaris, UniProt P59807, L125P); test: relative enzyme inhibition assay of ChABC by selected polysaccharide (chondroitin sulfate C substrate, absorbance at 232 nm); format: biochemical; conditions: for Activity (apparent ChABC activity in presence of selected polysaccharide) / % rA (percentage of residual activity): 0.2% chondroitin sulfate C, 0.2% selected polysaccharide, 50 mM pH8 Tris HCl, 37° C., 20 min; for Activity (apparent ChABC activity in presence of selected polysaccharide): reference without polysaccharide 121 U/L; for % rA (percentage of residual activity): relative to assay without polysaccharide; for effect on ChABC enzyme activity (in words): equal amount of substrate (chondroitin sulfate C) and polysaccharide
Description: There are several existing methods for quantitative study of protein-small molecule interactions such as differential scanning calorimetry, quartz crystal microbalance, fluorescence anisotropy, and the like. However, these methods require complex equipment, are expensive and time consuming, requiring protein immobilization or protein labeling. In order to save time and reduce costs, semi-quantitative assessment methods can be applied, such as enzyme inhibition assays. In the present invention, the relative binding affinity is evaluated by monitoring the inhibition of ChABC by the selected polysaccharide. The stronger the observed inhibitory effect, the higher the affinity between the ChABC and the polysaccharide. A more detailed experimental setup is shown in Example 1. […] Thus, heparin was identified as the most suitable ligand among the selected screened polysaccharides for constructing the affinity column.
In the present invention, it is necessary to identify molecules that have a similar structure to the substrate of ChABC but are inert to enzymatic degradation. In order to test polysaccharides that could actually bind to the active site of ChABC, a relative enzyme inhibition assay was conducted on the selected polysaccharide:
490 μL of the substrate solution was incubated at 37° C. for at least 15 minutes containing 0.2% chondroitin sulfate C, 0.2% selected polysaccharide and 50 mM pH8 Tris HCl buffer. 10 μL of ChABC with activity of about 100 U/L was incubated at 37° C. for at least 3 minutes. After incubation, the two solutions were gently mixed. The mixture was then incubated at 37° C. for 20 minutes to perform enzymatic degradation of chondroitin sulfate. After 20 minutes, the reaction was terminated by inactivating ChABC by heating at 100° C. for 2 minutes. In addition to inactivating the mixture immediately without incubation for 20 minutes, a blank control was performed in the same manner. The absorbance of the heat inactivated solution at 232 nm was then measured and the apparent activity was calculated as shown in Equation 1. The assay in the absence of selected polysaccharide was also conducted in the same manner as a reference.
[formula] • where • Abs=Difference in absorbance • =OD232nm in sample tubes−OD232nm in blank tubes • E=Millimolar extinction coefficient of unsaturated disaccharides from Chondroitin Sulfate C=5.5 • t=Reaction time=20 min • Vt=Total volume of the assay=0.5 mL • Vs=Volume of enzyme used=0.01 mL • DF=Dilution factor • 1000=Convert U/mL to U/L
[formula] • where • % rA=percentage of residual activity • A(poly)=the activity presence of selected polysaccharide • A(ref)=the […] of the assay without the presence of selected polysaccharide

[2] = target: T1, chondroitinase ABC (ChABC); test: incubation of ChABC alone with heparin (change in absorbance, enzymatic degradation); format: biochemical; conditions: ChABC incubated alone with heparin; no change in absorbance
Description: Therefore, immobilization of heparin as a ligand for affinity purification of ChABC is the most suitable choice among the selected polysaccharide derivatives.

T1 sequence (P59807 25-1021 L125P): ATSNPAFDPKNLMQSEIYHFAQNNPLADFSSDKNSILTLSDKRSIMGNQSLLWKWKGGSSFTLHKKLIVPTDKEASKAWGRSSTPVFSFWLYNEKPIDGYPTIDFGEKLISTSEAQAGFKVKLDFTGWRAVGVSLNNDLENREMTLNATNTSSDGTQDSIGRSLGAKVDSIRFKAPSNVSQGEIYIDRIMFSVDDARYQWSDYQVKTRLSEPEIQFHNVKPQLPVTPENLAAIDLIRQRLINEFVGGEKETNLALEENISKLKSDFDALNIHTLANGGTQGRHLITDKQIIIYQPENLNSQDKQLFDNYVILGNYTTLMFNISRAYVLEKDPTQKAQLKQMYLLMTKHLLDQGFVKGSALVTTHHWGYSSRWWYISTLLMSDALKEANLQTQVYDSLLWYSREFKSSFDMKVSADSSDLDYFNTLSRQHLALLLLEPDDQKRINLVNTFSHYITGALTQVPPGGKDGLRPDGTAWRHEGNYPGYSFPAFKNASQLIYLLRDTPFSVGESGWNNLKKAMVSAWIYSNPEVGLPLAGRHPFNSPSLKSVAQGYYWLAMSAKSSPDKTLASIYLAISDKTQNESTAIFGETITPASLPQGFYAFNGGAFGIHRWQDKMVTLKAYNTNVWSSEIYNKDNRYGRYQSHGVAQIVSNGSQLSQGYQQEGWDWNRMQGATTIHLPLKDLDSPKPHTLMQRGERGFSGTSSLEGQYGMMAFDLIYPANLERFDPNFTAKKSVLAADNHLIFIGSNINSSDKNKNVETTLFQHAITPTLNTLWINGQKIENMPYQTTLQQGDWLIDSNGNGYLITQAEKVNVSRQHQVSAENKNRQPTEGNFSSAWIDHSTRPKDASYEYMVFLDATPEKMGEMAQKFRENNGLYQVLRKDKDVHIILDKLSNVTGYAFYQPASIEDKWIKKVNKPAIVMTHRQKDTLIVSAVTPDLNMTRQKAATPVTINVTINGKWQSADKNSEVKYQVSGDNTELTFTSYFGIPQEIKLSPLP

| Substance | Activity (apparent ChABC activity in presence of selected polysaccharide) [1] [U/L] | % rA (percentage of residual activity) [1] [%] | effect on ChABC enzyme activity (in words) [1] | susceptibility to enzymatic degradation by ChABC [2] |
| --- | --- | --- | --- | --- |
| polygalacturonic acid | 117 | 97 | no significant effect on enzyme activity | – |
| heparin | 5.1 | 4.2 | almost completely inhibited ChABC activity; also recorded: strongest inhibitory effect on ChABC | not subject to the enzymatic degradation activity of ChABC |
| Alginic acid | 119 | 98 | no significant effect on enzyme activity | – |
